Assay results as given in patent US20240247252A1, “NOVEL COMPOUNDS FOR THE DEVELOPMENT OF REVERSIBLE COVALENT DRUGS” (The Trustees of Boston College, priority 2023, published 2024).
Positions of bridges follow the written chain, without caps; N, C: chain ends. Non-standard residues stand in square brackets, D forms with d. Residues, ends and D or L forms follow the SMILES beside them. *: point of attachment. X1 = O=Cc1ccccc1NCc1cc(C(=O)*)ccc1B(O)O; X2 = CC(=O)c1ccc(OCC(=O)*)cc1B(O)O; Dap = NC[C@H](N)C(=O)O

Tests used:
sortase A (SrtA) [1] = biological target: T1, sortase A (SrtA) (Staphylococcus aureus, UniProt Q2FV99); assay: biochemical; type: binding
Experimental: For peptide conjugation, a —COOH derivative of RMR1 and 2-APBA was synthesized respectively. […] The resulting peptides were assessed for SrtA binding through a fluorescence polarization-based competition assay, in which a fluorophore labeled W7 (W7-F) was used as a reporter.

sortase A (SrtA) [2] = biological target: T1, sortase A (SrtA); assay: SrtA binding kinetics, competition assay using W7-F as fluorescence reporter
Experimental: FIG. 1 illustrates reversible covalent inhibition of SrtA. […] The peptide's termini and the proximal lysine residues are labeled with the lysine ε-amines colored blue. […] FIG. 1(d) and FIG. 1(e) show SrtA binding kinetics of P3 and P5 recorded via a competition assay using W7-F as a fluorescence reporter.
Kinetic characterization of the P5-SrtA binding yielded a kon of 6.3 M^−1 s^−1, which is ˜300 times faster than the RMR1-lysine conjugation. The koff was determined to be 8.2×10^−6 s^−1, 4 times slower than the RMR1-lysine conjugation. The faster on-rate and slower off-rate are expected for the cooperative action between the covalent warhead and the W7 peptide that binds SrtA noncovalently.

[3] = tested on: SrtA on live S. aureus cells; assay: SrtA inhibition on live S. aureus cells, labeling by fluorescent SrtA substrate FAM-GSLPETGGS, flow cytometry; type: cell-based, Staphylococcus aureus; details: live S. aureus in LB media, read-out: IC50 of SrtA-mediated fluorescence labeling
Experimental: The peptides for SrtA inhibition on live S. aureus cells was further tested. A fluorescently labeled SrtA substrate (FAM-GSLPETGGS) was mixed with S. aureus in LB media with or without a peptide inhibitor. The SrtA-mediated bacterial labeling was assessed using fluorescence microscopy and flow cytometry.

[4] = tested on: SrtA on live S. aureus cells; assay: Long-lasting SrtA inhibition on S. aureus cells after washing away unbound inhibitor; type: cell-based, Staphylococcus aureus; details: unbound inhibitor washed away before substrate added, flow cytometry after 6 hours of incubation
Experimental: To test this hypothesis, the S. aureus cells was treated with P5 and then the unbound inhibitor was washed away before the fluorescent SrtA substrate was added. The S. aureus cells were subjected to flow cytometry analysis after 6 hours of incubation.

T1 sequence (Q2FV99 whole entry): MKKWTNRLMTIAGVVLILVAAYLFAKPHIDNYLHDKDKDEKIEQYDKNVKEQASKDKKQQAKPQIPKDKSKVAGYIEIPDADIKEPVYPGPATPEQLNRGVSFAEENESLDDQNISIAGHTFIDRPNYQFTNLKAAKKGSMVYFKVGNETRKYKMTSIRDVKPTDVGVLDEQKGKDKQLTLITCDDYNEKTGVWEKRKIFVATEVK

Structure (SMILES): CC[C@H](C)[C@@H]1NC(=O)[C@H](CC(C)C)NC(=O)[C@@H](NC(=O)[C@H](C)N)CSSC[C@@H](C(=O)NCC(=O)NCC(=O)NCC(=O)N[C@@H](CNC(=O)COc2ccc(C(C)=O)c(B(O)O)c2)C(N)=O)NC(=O)CNC(=O)CNC(=O)[C@H](Cc2c[nH]c3ccccc23)NC(=O)[C@H]([C@@H](C)O)NC(=O)[C@@H]2CCCN2C1=O [Compound P3] (H-ACLIPTWGGCGGG[Dap](X2)-NH2; disulfide 2-10)
- IC50 (sortase A (SrtA) [1]): 4.6 µM
- SrtA binding kinetics in words (sortase A (SrtA) [2]): reached equilibrium instantaneously
- IC50 [3]: 3.7 µM
- inhibition of SrtA-mediated fluorescence labeling after washing [4]: marginal reduction

Structure (SMILES): CC[C@H](C)[C@@H]1NC(=O)[C@H](CC(C)C)NC(=O)[C@@H](NC(=O)[C@H](C)NC(C)=O)CSSC[C@@H](C(=O)NCC(=O)NCC(=O)NCC(=O)N[C@@H](CNC(=O)c2ccc(B(O)O)c(CNc3ccccc3C=O)c2)C(N)=O)NC(=O)CNC(=O)CNC(=O)[C@H](Cc2c[nH]c3ccccc23)NC(=O)[C@H]([C@@H](C)O)NC(=O)[C@@H]2CCCN2C1=O [Compound P5] (Ac-ACLIPTWGGCGGG[Dap](X1)-NH2; disulfide 2-10)
- IC50 (sortase A (SrtA) [1]): 1.3 µM
- koff (sortase A (SrtA) [2]): 8.2e-06 s⁻¹
- koff, times slower than the RMR1-lysine conjugation (sortase A (SrtA) [2]): 4 times
- kon (sortase A (SrtA) [2]): 6.3 M⁻¹ s⁻¹
- kon, times faster than the RMR1-lysine conjugation (sortase A (SrtA) [2]): ~300 times

Structure (SMILES): CC[C@H](C)[C@@H]1NC(=O)[C@H](CC(C)C)NC(=O)[C@@H](NC(=O)[C@H](C)NC(=O)CNC(=O)CNC(=O)CNC(=O)COc2ccc(C(C)=O)c(B(O)O)c2)CSSC[C@@H](C(N)=O)NC(=O)CNC(=O)CNC(=O)[C@H](Cc2c[nH]c3ccccc23)NC(=O)[C@H]([C@@H](C)O)NC(=O)[C@@H]2CCCN2C1=O [Compound P7] (X2-GGGACLIPTWGGC-NH2; disulfide 5-13)
- IC50 (sortase A (SrtA) [1]): 4.5 µM

Structure (SMILES): CC[C@H](C)[C@@H]1NC(=O)[C@H](CC(C)C)NC(=O)[C@@H](NC(=O)[C@H](C)NC(=O)CNC(=O)CNC(=O)CNC(=O)c2ccc(B(O)O)c(CNc3ccccc3C=O)c2)CSSC[C@@H](C(N)=O)NC(=O)CNC(=O)CNC(=O)[C@H](Cc2c[nH]c3ccccc23)NC(=O)[C@H]([C@@H](C)O)NC(=O)[C@@H]2CCCN2C1=O [Compound P8] (X1-GGGACLIPTWGGC-NH2; disulfide 5-13)
- IC50 (sortase A (SrtA) [1]): 3.8 µM

Structure (SMILES): CC[C@H](C)[C@@H]1NC(=O)[C@H](CC(C)C)NC(=O)[C@@H](NC(=O)[C@H](C)N)CSSC[C@@H](C(N)=O)NC(=O)CNC(=O)CNC(=O)[C@H](Cc2c[nH]c3ccccc23)NC(=O)[C@H]([C@@H](C)O)NC(=O)[C@@H]2CCCN2C1=O [Compound W7] (H-ACLIPTWGGC-NH2; disulfide 2-10)
- IC50 (sortase A (SrtA) [1]): 17 µM
